Results: US8293715B2, “10a-Azalide compound crosslinked at 10a- and 12-positions” (Taisho Pharmaceutical Co., Ltd., priority 2007, dated 2012)
In brackets after ≈: the same amount, converted by molar mass.

How the values were obtained:
Type in all cases: cell-based
H. influenzae ATCC 43095 = assay: In vitro antibacterial activity, MIC by microbroth dilution method (CLSI method), test bacteria symbol A; details: Haemophilus influenzae, ATCC43095, read-out: MIC (minimum inhibitory concentration), test bacteria A
Method: (§1) In vitro antibacterial activities of the compounds of the present invention against various test bacteria were measured according to the microbroth dilution method (CLSI method). As Comparative agent 1, clarithromycin was used, and the results for typical exemplary compounds are shown as MIC values (minimum inhibitory concentration, μg/ml) in Table 19.

S. pneumoniae ATCC 49619 = assay: In vitro antibacterial activity, MIC by microbroth dilution method (CLSI method), test bacteria symbol B; details: Streptococcus pneumoniae, ATCC49619, read-out: MIC (minimum inhibitory concentration), test bacteria B
Method: as §1

[1] = tested on: S. pneumoniae ATCC 700904; assay: In vitro antibacterial activity, MIC by microbroth dilution method (CLSI method), test bacteria symbol C; details: Streptococcus pneumoniae, ATCC700904, read-out: MIC (minimum inhibitory concentration), test bacteria C
Method: as §1

MIC (H. influenzae ATCC 43095) | MIC (S. pneumoniae ATCC 49619) | MIC [1] | Structure (SMILES)
4 µg/mL (≈ 5.35 µM) | 0.03 µg/mL (≈ 0.0401 µM) | > 128 µg/mL | CC[C@H]1OC(=O)[C@H](C)[C@@H](O[C@H]2C[C@@](C)(OC)[C@@H](O)[C@H](C)O2)[C@H](C)[C@@H](O[C@@H]2O[C@H](C)C[C@H](N(C)C)[C@H]2O)[C@](C)(OC)C[C@@H](C)C(=O)[C@H](C)[C@@H](O)[C@]1(C)O [Comparative agent 1, clarithromycin, reference compound]
16 µg/mL (≈ 21.6 µM) | 8 µg/mL (≈ 10.8 µM) | > 16 µg/mL | CO[C@@]1(C)C[C@@H](C)[C@H](O)[C@H](C)N2C[C@@H](COc3cccc(C(C)(C)C)c3)[C@H](C2)OC(=O)C(C)(Cl)C(=O)[C@H](C)[C@H]1O[C@@H]1O[C@H](C)C[C@H](N(C)C)[C@H]1O (stereo partly drawn) [Example522]
4 µg/mL (≈ 4.86 µM) | 0.12 µg/mL (≈ 0.146 µM) | > 128 µg/mL | CO[C@]1(C)C[C@H](O[C@H]2[C@H](C)[C@@H](O[C@@H]3O[C@H](C)C[C@H](N(C)C)[C@H]3O)[C@@](C)(OC)C[C@@H](C)[C@H](O)[C@H](C)N3C[C@@H](COCc4ccccc4)[C@H](C3)OC(=O)[C@@H]2C)O[C@@H](C)[C@@H]1O [Example523]
0.5 µg/mL (≈ 0.697 µM) | 0.25 µg/mL (≈ 0.349 µM) | > 128 µg/mL | CO[C@]1(C)C[C@H](O[C@H]2[C@H](C)[C@@H](O[C@@H]3O[C@H](C)C[C@H](N(C)C)[C@H]3O)[C@@](C)(OC)C[C@@H](C)[C@H](O)[C@H](C)N3CCC[C@@H](C3)OC(=O)[C@@H]2C)O[C@@H](C)[C@@H]1O [Example525]
